The values that follow come from patent US20170354659A1, “COMPOSITIONS CONTAINING DEFINED CAFFEINE AND THEOBROMINE LEVELS WITH ENHANCED COGNITIVE PROPERTIES” (The Hershey Company, priority 2014, published 2017).

In one experiment the test system is brain blood flow. Particulars: difference between caffeine and theobromine, 6 participants; cited from earlier work.
The subject of experiment [1] is regions of the brain associated with caffeine cravings. The experiment in a line: fMRI brain blood flow/connectivity analysis. The experiment is classed as in vivo, human. Particulars: subjects with a caffeine habit, FIG. 1 and 3.
Text: Measurement or detection of changes in the brain can be done using functional MRI (fMRI) and functional brain network analyses as known in the art. The following is an exemplary study using known techniques based upon fMRI scanning of human brains.
These examples represent an intervention study (number of subjects=24) with a randomized controlled, double-blind, placebo-controlled crossover design. The study is designed to ensure completion of all possibilities in the order of delivering the test samples, i.e. each subject is administered each of the possible test beverages in different order. An approximately equal number of men and women should be included and ethnic groups and minorities should also be included. For initial baseline testing, subjects undergo 16 hours of caffeine and chocolate withdrawal for a baseline testing and then participate in four separate brain scanning visits over 5-10 weeks. […] As determined from a medical screening session, any subjects with active neurological dysfunction (such as a major Axis I psychopathology, Alzheimer's disease, Parkinson's disease, prior history of stroke, epilepsy, or serious CNS trauma, ADHD, migraines, hypertension, diabetes, peripheral vascular disease, or taking vasoactive medications, such as antihypertensive medications) are excluded from the study. […]

As to `Cn1cnc2c1c(=O)[nH]c(=O)n2C` [theobromine], the “brain blood flow difference” value in the experiment with brain blood flow is listed as 5.03 ml/100 gm tissue/min.
In the case of `Cn1c(=O)c2c(ncn2C)n(C)c1=O` [Caffeine, caffeine], the “change in blood flow/connectivity by fMRI” value in experiment [1] was “typical reduction in blood flow/connectivity”.
